Reference: US20070117743A1, “New antitumoral compounds” (priority 2003, published 2007)
Read-outs that look alike come from different tables or passages of the source. Where a SMILES comes first, the peptide text is derived from it. Bridges are numbered along the chain shown (N, C = ends). [ ]: non-standard residue; d: D form. The star is where a group is joined. d(aIle) = CC[C@H](C)[C@@H](N)C(=O)O; d(aThr) = C[C@@H](O)[C@@H](N)C(=O)O; Hexanoyl(5-Me) = CC(C)CCCC(=O)*; Orn = NCCC[C@H](N)C(=O)O; Dhb = C/C=C(\N)C(=O)O

How the values were obtained:
Type in all cases: cell-based, human
IGROV-ET = assay: SRB colorimetric assay of cell growth and viability, IGROV-ET; conditions: 48 hours exposure; for CC50: read-out: LC50 IGROV-ET
IGROV-1 = assay: SRB colorimetric assay of cell growth and viability, IGROV-1; conditions: 48 hours exposure
LoVo = assay: SRB colorimetric assay of cell growth and viability, LoVo; conditions: 48 hours exposure, SRB
PANC-1 = assay: SRB colorimetric assay of cell growth and viability, PANC-1; conditions: 48 hours exposure; for CC50: read-out: LC50 PANC-1
SK-BR-3 = assay: SRB colorimetric assay of cell growth and viability, SK-BR-3; conditions: 48 hours exposure
LoVo-Dox = assay: SRB colorimetric assay of cell growth and viability, LoVo-Dox; conditions: 48 hours exposure; for CC50: read-out: LC50 LOVO-DOX
Procedure, shortened: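 First, 5×10^3 cells per well attach for 18 hours in RPMI 1640 with 10% FBS at 37° C and 5% CO2. Next, samples spanning 10 to 10^−8 μg/mL are added for 48 hours. Finally, cells are fixed with TCA, stained with SRB for 10 minutes and read at 490 nm.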

SK-MEL-28 = assay: SRB colorimetric assay of cell growth and viability, SK-MEL-28; conditions: 48 hours exposure; for CC50: read-out: LC50 MEL-28
LNCaP = assay: SRB colorimetric assay of cell growth and viability, LNCaP; conditions: 48 hours exposure; for CC50: read-out: LC50 LN-caP
A-549 = assay: SRB colorimetric assay of cell growth and viability, A-549; conditions: 48 hours exposure; for GI50: read-out: GI50 A-549; for CC50: read-out: LC50 A-549
HeLa = assay: SRB colorimetric assay of cell growth and viability, HeLa; conditions: 48 hours exposure; for CC50: read-out: LC50 HELA
HT-29 = assay: SRB colorimetric assay of cell growth and viability, HT-29; conditions: 48 hours exposure; for GI50: read-out: GI50 HT-29; for CC50: read-out: LC50 HT-29
HeLa-APL = assay: SRB colorimetric assay of cell growth and viability, HeLa-APL; conditions: 48 hours exposure; for CC50: read-out: LC50 HELA-APL
DU-145 = assay: SRB colorimetric assay of cell growth and viability, DU-145; conditions: 48 hours exposure
K-562 = assay: SRB colorimetric assay of cell growth and viability, K-562; conditions: K-562, 48 hours exposure; for CC50: read-out: LC50 K-562

C/C=C1\NC(=O)[C@H](Cc2ccc(Cl)c(Cl)c2)NC(=O)[C@@H](C(C)C)NC(=O)[C@@H]([C@@H](C)CC)NC(=O)[C@H](NC(=O)[C@H](NC(=O)[C@H](CCCN)NC(=O)[C@H]2CCCN2C(=O)[C@H](NC(=O)[C@@H](NC(=O)[C@@H](NC(=O)[C@H](NC(=O)CC[C@@H](C)CC)C(C)C)[C@@H](C)O)C(C)C)C(C)C)[C@@H](C)CC)[C@@H](C)OC(=O)[C@H](C(C)C)NC1=O [Compound 70, [Phe(3,4-Cl2)^3, (4S)-MeHex^14]-KF]
GI50 (IGROV-ET; SRB): 112 nM
TGI IGROV-ET (IGROV-ET; SRB): 2.09E−07 Molar
CC50 (IGROV-ET; SRB): 0.387 µM
GI50 (IGROV-1; SRB): 182 nM
LC50 (concentration causing 50% net cell killing) (IGROV-1; SRB): 0.487 µM
TGI IGROV (IGROV-1; SRB): 2.97E−07 Molar
GI50 (LoVo): 68.5 nM
TGI LOVO (LoVo): 4.11E−07 Molar
CC50 (LoVo; read-out: LC50 LOVO): 1730 nM
GI50 (PANC-1; SRB): 1000 nM
TGI PANC-1 (PANC-1; SRB): 1.85E−06 Molar
CC50 (PANC-1; SRB): 3.42 µM
GI50 (SK-BR-3; SRB): 52.8 nM
LC50 (SK-BR-3; SRB): 0.299 µM
TGI SK-BR-3 (SK-BR-3; SRB): 1.18E−08 Molar
GI50 (LoVo-Dox; SRB): 28.5 nM
TGI LOVO-DOX (LoVo-Dox; SRB): 8.15E−08 Molar
CC50 (LoVo-Dox; SRB): 0.612 µM
GI50 (SK-MEL-28; SRB): 120 nM
TGI MEL-28 (SK-MEL-28; SRB): 2.39E−07 Molar
CC50 (SK-MEL-28; SRB): 0.475 µM
TGI LN-caP (LNCaP; SRB): 2.08E−07 Molar
GI50 (LNCaP; SRB, read-out: GI50 LN-caP): 66.6 nM
CC50 (LNCaP; SRB): 6.47 µM
TGI A-549 (A-549; SRB): 3.32E−07 Molar
GI50 (A-549; SRB): 183 nM
CC50 (A-549; SRB): 0.604 µM
GI50 (HeLa; SRB): 125 nM
TGI HELA (HeLa; SRB): 2.22E−07 Molar
CC50 (HeLa; SRB): 0.397 µM
TGI HT-29 (HT-29; SRB): 2.13E−07 Molar
GI50 (HT-29; SRB): 111 nM
CC50 (HT-29; SRB): 0.412 µM
GI50 (HeLa-APL; SRB): 259 nM
TGI HELA-APL (HeLa-APL; SRB): 7.63E−07 Molar
CC50 (HeLa-APL; SRB): 2.24 µM
GI50 (DU-145; SRB): 142 nM
LC50 (concentration causing 50% net cell kill) (DU-145; SRB): 0.465 µM
TGI DU-145 (DU-145; SRB): 2.57E−07 Molar

C/C=C1\NC(=O)[C@H](Cc2ccccc2)NC(=O)[C@@H](C(C)C)NC(=O)[C@@H]([C@@H](C)CC)NC(=O)[C@H](NC(=O)[C@H](NC(=O)[C@H](CCCN)NC(=O)[C@H]2CCCN2C(=O)[C@H](NC(=O)[C@@H](NC(=O)[C@@H]2CCCN2C(=O)[C@H](NC(=O)CCCC(C)C)C(C)C)C(C)C)C(C)C)[C@@H](C)CC)[C@@H](C)OC(=O)[C@H](C(C)C)NC1=O [Compound 117, [Pro^12]-KF] ({Hexanoyl(5-Me)}-[dV]PV[dV][dP][Orn][d(aIle)][d(aThr)][d(aIle)][dV]F[Dhb]V; ester 8-C)
GI50 (IGROV-ET; IGROV-ET): 1820 nM
TGI IGROV-ET (IGROV-ET; IGROV-ET): 3.11E−06 Molar
CC50 (IGROV-ET; IGROV-ET): 5.34 µM
GI50 (IGROV-1; IGROV): 1970 nM
LC50 (concentration causing 50% net cell killing) (IGROV-1; IGROV): 6.78 µM
TGI IGROV (IGROV-1; IGROV): 3.70E−06 Molar
GI50 (K-562): 841 nM
TGI K-562 (K-562): 2.10E−06 Molar
CC50 (K-562): 5.22 µM
GI50 (PANC-1; PANC-1): 3880 nM
TGI PANC-1 (PANC-1; PANC-1): 6.78E−06 Molar
CC50 (PANC-1; PANC-1): 6.78 µM
GI50 (SK-BR-3; SK-BR-3): 1550 nM
LC50 (SK-BR-3; SK-BR-3): 5.62 µM
TGI SK-BR-3 (SK-BR-3; SK-BR-3): 2.96E−06 Molar
GI50 (LoVo-Dox; LOVO-DOX): 1830 nM
TGI LOVO-DOX (LoVo-Dox; LOVO-DOX): 3.59E−06 Molar
CC50 (LoVo-Dox; LOVO-DOX): 6.78 µM
GI50 (SK-MEL-28; MEL-28): 2000 nM
TGI MEL-28 (SK-MEL-28; MEL-28): 4.26E−06 Molar
CC50 (SK-MEL-28; MEL-28): 6.78 µM
GI50 (LNCaP; LN-caP): 1510 nM
TGI LN-caP (LNCaP; LN-caP): 2.87E−06 Molar
CC50 (LNCaP; LN-caP): 5.45 µM
TGI A-549 (A-549; A-549): 6.78E−06 Molar
GI50 (A-549; A-549): 3290 nM
CC50 (A-549; A-549): 6.78 µM
GI50 (HeLa; HELA): 1530 nM
TGI HELA (HeLa; HELA): 2.89E−06 Molar
CC50 (HeLa; HELA): 5.46 µM
TGI HT-29 (HT-29; HT-29): 3.38E−06 Molar
GI50 (HT-29; HT-29): 17.6 nM
CC50 (HT-29; HT-29): ≥ 6.49 µM
GI50 (HeLa-APL; HELA-APL): 1840 nM
TGI HELA-APL (HeLa-APL; HELA-APL): 3.98E−06 Molar
CC50 (HeLa-APL; HELA-APL): 6.78 µM
GI50 (DU-145; DU-145): 2410 nM
LC50 (concentration causing 50% net cell kill) (DU-145; DU-145): 6.78 µM
TGI DU-145 (DU-145; DU-145): 5.43E−06 Molar

C/C=C1\NC(=O)[C@H](Cc2ccccc2)NC(=O)[C@@H](C(C)C)NC(=O)[C@@H]([C@@H](C)CC)NC(=O)[C@H](NC(=O)[C@H](NC(=O)[C@H](CCCN)NC(=O)[C@H]2CCCN2C(=O)[C@H](NC(=O)[C@@H](NC(=O)[C@@H](NC(=O)[C@@H](CCCN)NC(=O)CCCC(C)C)[C@@H](C)O)C(C)C)C(C)C)[C@@H](C)CC)[C@@H](C)OC(=O)[C@H](C(C)C)NC1=O [Compound 118, [D-Orn^13]-KF]
GI50 (IGROV-ET; IGROV-ET): 1850 nM
TGI IGROV-ET (IGROV-ET; IGROV-ET): 3.74E−06 Molar
CC50 (IGROV-ET; IGROV-ET): 6.7 µM
GI50 (IGROV-1; IGROV): 1450 nM
LC50 (concentration causing 50% net cell killing) (IGROV-1; IGROV): 5.24 µM
TGI IGROV (IGROV-1; IGROV): 2.76E−06 Molar
GI50 (K-562): 1600 nM
TGI K-562 (K-562): 3.92E−06 Molar
CC50 (K-562): 6.7 µM
GI50 (PANC-1; PANC-1): 2090 nM
TGI PANC-1 (PANC-1; PANC-1): 4.74E−06 Molar
CC50 (PANC-1; PANC-1): 6.7 µM
GI50 (SK-BR-3; SK-BR-3): 851 nM
LC50 (SK-BR-3; SK-BR-3): 4.42 µM
TGI SK-BR-3 (SK-BR-3; SK-BR-3): 1.94E−06 Molar
GI50 (LoVo-Dox; LOVO-DOX): 1590 nM
TGI LOVO-DOX (LoVo-Dox; LOVO-DOX): 3.28E−06 Molar
CC50 (LoVo-Dox; LOVO-DOX): 6.7 µM
GI50 (SK-MEL-28; MEL-28): 1490 nM
TGI MEL-28 (SK-MEL-28; MEL-28): 2.88E−06 Molar
CC50 (SK-MEL-28; MEL-28): 5.55 µM
GI50 (LNCaP; LN-caP): 2870 nM
TGI LN-caP (LNCaP; LN-caP): 6.70E−06 Molar
CC50 (LNCaP; LN-caP): 6.7 µM
TGI A-549 (A-549; A-549): 4.21E−06 Molar
GI50 (A-549; A-549): 1960 nM
CC50 (A-549; A-549): 6.7 µM
GI50 (HeLa; HELA): 1570 nM
TGI HELA (HeLa; HELA): 3.30E−06 Molar
CC50 (HeLa; HELA): 6.7 µM
TGI HT-29 (HT-29; HT-29): 2.84E−06 Molar
GI50 (HT-29; HT-29): 1200 nM
CC50 (HT-29; HT-29): 6.7 µM
GI50 (HeLa-APL; HELA-APL): 1860 nM
TGI HELA-APL (HeLa-APL; HELA-APL): 4.15E−06 Molar
CC50 (HeLa-APL; HELA-APL): 6.7 µM
GI50 (DU-145; DU-145): 1860 nM
LC50 (concentration causing 50% net cell kill) (DU-145; DU-145): 6.7 µM
TGI DU-145 (DU-145; DU-145): 3.84E−06 Molar
